The structures appear in SMILES notation. Peptide text beside a SMILES is read from it. * marks the point of attachment. Cbz = O=C(OCc1ccccc1)*; CH2F = FC*

The results in this text go back to patent US11517575B2, “Use of minaprine to reduce tumor growth” (Institut Gustave-Roussy, priority 2019, dated 2022).

The experiment deals with HCT116 cells. Description: Cell death profiling by quantitative flow imaging of irradiated/non-irradiated co-cultures with death effector inhibitors. It counts as cell-based, human. To be noted: 4 Gy, 24 h co-culture; for engulfment of neighboring cells by gamma-irradiated CMFDA+ cells (cell-in-cell structures): Y27632 30 μM; for PS exposure on outer plasma membrane of irradiated CMFDA+ cells: Rosco 10 μM. The protocol: FIG. 2 Detection of γ-irradiation-elicited cell autonomous death modalities by quantitative imaging flow-cytometry. (A-E) Detection and quantification of plasma membrane integrity loss and PS exposure observed after 24 hour co-culture of untreated (red/dark grey) CMTMR-labeled HCT116 cells and untreated (green/light grey) CMFDA-labeled HCT116 cells (A, C-E), of untreated (red/dark grey) CMTMR-labeled HCT116 cells and untreated (green/light grey) CMFDA-labeled HCT116 cells that have been extemporally mixed (C-E) or after 24 hour co-culture of untreated (red/dark grey) […] HCT116 cells with (green/light grey) CMFDA-labeled HCT116 cells (green) that have been irradiated with 4 grays of γ-ionizing radiation (B-E). The co-cultures have been performed in presence or absence of the indicated pharmacological death effector inhibitors. The detection of plasma membrane integrity (with DRAQ7) and PS exposure (with BV786-streptavidin/Annexin V biotin) have been analyzed for the untreated (red/dark grey) CMTMR^+ HCT116 cells, for untreated (green/light grey) CMFDA^+ HCT116 cells, for treated (green/light grey) CMFDA^+ HCT116 cells and for total cell population (CMTMR^+ or CMFDA^+ HCT116 cells). Representative dot plots (A,B) and quantitative data (C-E) are shown (means±SEM, n=3). (F,G) Representative cell cycle distributions of untreated (red/dark grey) CMTMR^+ HCT116 cells, untreated (green/light grey) CMFDA^+ HCT116 cells, treated (green/light grey) CMFDA^+ HCT116 cells and for total cell population (CMTMR^+ or CMFDA^+ HCT116 cells) obtained after 24 hour co-culture of untreated (red/dark grey) CMTMR-labeled HCT116 cells with untreated (green/light grey) CMFDA-labeled HCT116 cells (F, H-J), of untreated (red/dark grey) CMTMR-labeled HCT116 cells and untreated (green/light grey) CMFDA-labeled HCT116 cells that have been extemporally mixed (H-J) or after 24 hour co-culture of untreated (red/dark grey) CMTM-labeled HCT116 cells with (green/light grey) CMFDA-labeled HCT116 cells (green/light grey) that have been irradiated with 4 grays of γ-ionizing radiation (G-J) are shown. Quantitative data of cell cycle analysis are shown in (H-J) (means±SEM, n=3). * or # or $ represents p<0.05, ## or $$ p<0.01, *** or ###p<0.001.
FIG. 3 Detection of γ-irradiation-elicited non-cell autonomous death modalities by quantitative imaging flow-cytometry and confocal fluorescence microscopy. (A-G) Cell-in-cell structures and target cell degradation were determined by quantitative imaging (A-C) and confocal fluorescent microscopy (D-G) after 24 hour co-culture of untreated (red/dark grey) CMTM-labeled HCT116 cells with (green/light grey) CMFDA-labeled HCT116 cells that have been irradiated with 4 grays of γ-ionizing radiation (A), coculture of untreated (red/dark grey) CMTMR-labeled HCT116 cells with untreated (green/light grey) CMFDA-labeled HCT116 cells (B, C) or on CMTMR labeled (red/dark grey) HCT116 cells and untreated (green/light grey) CMFDA-labeled HCT116 cells that have been extemporally mixed (B, C). As previously described, cells have been sequentially labeled after co-cultures with specific fluorescent probes like BV786-streptavidin-Annexin V biotin, DRAQ7, and Hoechst 33342. Then, (red/dark grey) CMTMR-labeled HCT116 cells internalizing (green/light grey) CMFDA-labeled HCT116 cells (noted R(G)), and (green/light grey) CMFDA-labeled HCT116 cells internalizing (red/dark grey) CMTMR-labeled HCT116 cells (noted G(R)) were detected. Representative images are shown in (A) (scale, 20 μm). Frequencies of Cell-in-Cell structures (B) and target cell degradation (C) are reported (means±SEM, n=3). Representative confocal images of cell-in-cell structures (white arrow) (D) and target cell degradation (white dotted arrow) (E) detected during co-culture of untreated (red) CMTMR-labeled HCT116 cells with untreated or γ-irradiated (green) CMFDA-labeled cells are shown (scale bar=10 μm). […]

Take `C[C@@H](N)[C@H]1CC[C@H](C(=O)Nc2ccncc2)CC1` [Y27632]: the “engulfment of neighboring cells by gamma-irradiated CMFDA+ cells (cell-in-cell structures)” value (ZVAD 100 μM) is “repressed”. Regarding `COC(=O)CC(NC(=O)C(C)NC(=O)C(NC(=O)OCc1ccccc1)C(C)C)C(=O)CF` (stereo not drawn) [Z-VAD-fmk, Benzyloxycarbonyl-Val-Ala-Asp(OMe)-fluoromethylketone] (Cbz-Val-Ala-Asp(OMe)-CH2F; configuration not given here), for the setting “ZVAD 100 μM”, the “PS exposure on outer plasma membrane of irradiated CMFDA+ cells” value was “inhibited the exposure of PS” and the “engulfment of neighboring cells by gamma-irradiated CMFDA+ cells (cell-in-cell structures)” value is recorded as “not affected”. The “cellular degradation of engulfed CMTMR+ cells” value (ZVAD 100 μM, YVAD 100 μM) is recorded as “significantly reduced”. For the compound `CO/C1=C\C(C)=C\[C@@H](C)[C@@H](O)[C@@H](C)C/C(C)=C/C=C/[C@H](OC)[C@@H]([C@@H](C)[C@@H](O)[C@H](C)[C@@]2(O)C[C@@H](O)[C@H](C)[C@@H](C(C)C)O2)OC1=O` [bafilomycin A1, Bafilomycin A1], the “frequency of dying cells (AnnexinV+DRAQ7- and DRAQ7+)” value (total, non-irradiated CMTMR+ and irradiated CMFDA+ cells, BafA1 50 nM) is reported as “increased the frequency of dying cells”.

On to `CC[C@H](CO)Nc1nc(NCc2ccccc2)c2ncn(C(C)C)c2n1` [roscovitine, Roscovitine], for which the “PS exposure on outer plasma membrane of irradiated CMFDA+ cells” value (ZVAD 100 μM) is given as “inhibited the exposure of PS”.
